The experiment addresses T1, human IBAT (Homo sapiens, UniProt Q12908).
T1 construct: expressed in transfected cells; host or cells: Baby hamster kidney (BHK) cells, clone H14
T1 sequence (Q12908 1-348): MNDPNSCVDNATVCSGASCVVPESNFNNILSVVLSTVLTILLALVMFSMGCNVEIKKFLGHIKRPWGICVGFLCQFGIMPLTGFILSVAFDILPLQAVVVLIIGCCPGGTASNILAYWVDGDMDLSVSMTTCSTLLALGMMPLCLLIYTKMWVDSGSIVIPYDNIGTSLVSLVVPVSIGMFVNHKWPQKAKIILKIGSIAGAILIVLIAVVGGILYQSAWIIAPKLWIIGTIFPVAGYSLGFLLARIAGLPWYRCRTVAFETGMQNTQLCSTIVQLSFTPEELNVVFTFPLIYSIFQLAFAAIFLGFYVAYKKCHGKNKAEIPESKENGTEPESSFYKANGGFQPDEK
The experiment is described as follows: In vitro assay of IBAT-mediated uptake of [14C]-taurocholate (TC) in H14 cells. It counts as cell-based. The settings on record: for inhibition at 100 µM: read-out: In vitro % Inhibition of TC Uptake @ 100 uM. The protocol:
In Vitro Assay of Compounds that Inhibit IBAT-Mediated Uptake of [^14C]-Taurocholate (TC) in H14 Cells
Baby hamster kidney cells (BHK) transfected with the cDNA of human IBAT (H14 cells) are seeded at 60,000 cells/well in 96 well Top-Count tissue culture plates for assays run within in 24 hours of seeding, 30,000 cells/well for assays run within 48 hours, and 10,000 cells/well for assays run within 72 hours.
On the day of assay, the cell monolayer is gently washed once with 100 μl assay buffer (Dulbecco's Modified Eagle's medium with 4.5 g/L glucose+0.2% (w/v) fatty acid free bovine serum albumin-(FAF)BSA). To each well 50 μl of a two-fold concentrate of test compound in assay buffer is added along with 50 μl of 6 μM [^14C]-taurocholate in assay buffer (final concentration of 3 μM [^14C]-taurocholate). The cell culture plates are incubated 2 hours at 37° C. prior to gently washing each well twice with 100 μl 4° C. Dulbecco's phosphate-buffered saline (PBS) containing 0.2% (w/v) (FAF)BSA. The wells are then gently washed once with 100 μl 4° C. PBS without (FAF)BSA. To each 200 μl of liquid scintillation counting fluid is added, the plates are heat sealed and shaken for 30 minutes at room temperature prior to measuring the amount of radioactivity in each well on a Packard Top-Count instrument.

Setting [1] is: H14 cells, Table 5, read-out: IC50 uM (In vitro Taurocholate Cell Uptake).

Like-named read-outs stand apart in the source and are kept apart here.

`CCCC[C@]1(CC)CS(=O)(=O)c2ccccc2[C@H](c2ccccc2)[C@H]1O` [Example 6b, (3α,4β,5α) 3-Butyl-3-ethyl-4-hydroxy-5-phenyl-2,3,4,5-tetrahydro-benzothiepine-1,1-dioxide]: the inhibition at 100 µM (100 uM) is 85%. As for `CCCC[C@]1(CC)CS(=O)(=O)c2ccccc2[C@@]2(c3ccccc3)O[C@@H]12` [Example 8a, (1aα,2β,8bα) 2-Butyl-2-ethyl-8b-phenyl-1α,2,3,8b-tetrahydro-benzothiepino[4,5-b]oxirene-4,4-dioxide], where the note is “100 uM”, the inhibition at 100 µM is 41%.

Regarding `CCC1C=C(c2ccccc2)c2ccccc2SC1` (stereo not drawn) [Example 12, 3-Ethyl-5-phenyl-2,3-dihydrobenzothiepine], the inhibition at 100 µM worked out at 25%. For `CCC1CS(=O)(=O)c2ccccc2[C@@]2(c3ccccc3)O[C@@H]12` (stereo partly drawn) [Example 13, (1aα,2α,8bα) 2-Ethyl-8b-phenyl-1a,2,3,8b-tetrahydro-benzothiepino-[4,5-b] oxirene-4,4-dioxide], the inhibition at 100 µM (100 uM) stood at 23%. Still for that read-out and setting: with `CC[C@@H]1CS(=O)(=O)c2ccccc2[C@H](c2ccccc2)[C@H]1O` [Example 14a, (3α,4β,5α)-3-Ethyl-4-hydroxy-5-phenyl-2,3,4,5-tetrahydro-benzothiepine-1,1-dioxide] the figure was 13%; with `CC[C@@H]1CS(=O)(=O)c2ccccc2[C@@H](c2ccccc2)[C@H]1O` [Example 14b, (3α,4β,5β) 3-Ethyl-4-hydroxy-5-phenyl-2,3,4,5-tetrahydrobenzothiepine-1,1-dioxide], 18%. Same read-out and setting: with `CCCCC1(CC)C=Cc2ccccc2SC1` (stereo not drawn) [Example 18, 3-Butyl-3-ethyl-2,3-dihydrobenzothiepine] the figure was 6%. For the compound `CCCC[C@]1(CC)CS(=O)(=O)c2ccccc2[C@@H]2O[C@@H]21` [Example 19a, (1aα,2α,8bα) 2-Butyl-2-ethyl-1a,2,3,8b-tetrahydro-benzothiepino[4,5-b]oxirene-4,4-dioxide], the inhibition at 100 µM (100 uM) amounted to 0%.

On to `CCCC[C@]1(CC)CS(=O)(=O)c2ccccc2[C@H]2O[C@H]21` [Example 19b], for which the inhibition at 100 µM (100 uM) turned out to be 15%. Still for that read-out and setting: the same measure for `CCCCC1(CC)CS(=O)(=O)c2ccccc2C(Sc2ccccc2)C1O` (stereo not drawn) [Example 21a, 3-Butyl-3-ethyl-4-hydroxy-5-phenylthio-2,3,4,5-tetrahydro-benzothiepine-1,1-dioxide]: 37%. The compound `CCCCCCNc1ccc2c(c1)[C@H](c1ccccc1)[C@H](O)[C@](CC)(CCCC)CS2(=O)=O` [Example 40, (3α,4α,5α) 3-Butyl-3-ethyl-7-(n-hexylamino)-4-hydroxy-5-phenyl-2,3,4,5-tetrahydrobenzothiepine-1,1-dioxide] displayed an inhibition at 50 µM of 49%. With `CCCC[C@]1(CC)CS(=O)(=O)c2ccccc2[C@@H](c2ccc(I)cc2)[C@H]1O` [Example 42, (3α,4β,5β) 3-Butyl-3-ethyl-4-hydroxy-5-(4-iodophenyl)-2,3,4,5-tetrahydrobenzothiepine-1,1-dioxide], the IC50 under setting [1] came out at 1.5 µM. On to `C1=C(c2ccccc2)c2ccccc2SCC12CCCCC2` [Example 57, 5-Phenyl-2,3-dihydrospirobenzothiepine-3,1′-cyclohexane], for which the inhibition at 50 µM turned out to be 51%.

The compound `O=S1(=O)CC2(CCCCC2)C2OC2(c2ccccc2)c2ccccc21` (stereo not drawn) [Example 58, 8b-Phenyl-1a,2,3,8b-tetrahydrospiro(benzothiepino[4,5-b]oxirene-2,1′-cyclohexane)-4,4-dioxide] had an inhibition at 50 µM of 20%. `CCCC[C@]1(CC)CSc2ccccc2[C@H](c2ccccc2)[C@@H]1O` [Example 61, (3α,4α,5α) 3-Butyl-3-ethyl-4-hydroxy-5-phenyl-2,3,4,5-tetrahydrobenzothiepine]: the IC50 under setting [1] is 30 µM. Same read-out and setting: the same measure for `CCCC[C@]1(CC)CSc2ccccc2[C@@H](c2ccccc2)[C@H]1O` [Example 62, (3α,4β,5β) 3-Butyl-3-ethyl-4-hydroxy-5-phenyl-2,3,4,5-tetrahydrobenzothiepine]: 10 µM. Compound `CCCC[C@]1(CC)CS(=O)(=O)c2ccc(N)cc2[C@H](c2ccccc2)[C@@H]1O` [Example 63, (3α,4α,5α) 3-Butyl-3ethyl-4-hydroxy-7-amino-5-phenyl-2,3,4,5-tetrahydrobenzothiepine-1,1-dioxide] registered an inhibition at 6 µM of 90%. On to `CCCC[C@]1(CC)CS(=O)(=O)c2ccc(N)cc2[C@@H](c2ccccc2)[C@H]1O` [Example 64, (3α,4β,5β) 3-Butyl-3-ethyl-4-hydroxy-7-amino-5-phenyl-2,3,4,5-tetrahydrobenzothiepine-1,1-dioxide], for which testing at 6 µM gave an inhibition of 100%. On to `CCCC[C@]1(CC)CS(=O)(=O)c2ccc([N+](C)(C)C)cc2[C@@H](c2ccccc2)[C@H]1O` [Example 102], for which the IC50 (read-out: Human TC IC50) was 0.083 µM. As for `CCCC[C@]1(CC)CS(=O)(=O)c2ccc(N(C)C)cc2[C@@H](c2ccccc2)[C@H]1O` [Example 104], the IC50 (Human TC IC50) was 0.0056 µM. Consider `CCCCC1(CC)CS(=O)(=O)c2ccc(NS(C)(=O)=O)cc2C(c2ccccc2)C1O` (stereo not drawn) [Example 105], for which the half-maximal inhibitory concentration (IC50) (read-out: Human TC IC50) was determined as 0.6 µM. Same read-out and setting: with `CCCCC1(CC)CS(=O)(=O)c2ccc(NC(=O)CBr)cc2C(c2ccccc2)C1O` (stereo not drawn) [Example 106] the figure was 0.8 µM. For `CCCCCC(=O)Nc1ccc2c(c1)C(c1ccccc1)C(O)C(CC)(CCCC)CS2(=O)=O` (stereo not drawn) [Example 108], the IC50 (read-out: Human TC IC50) is 0.3 µM. Same read-out and setting: the same measure for `CCCCC1(CC)CS(=O)(=O)c2ccc(NC(C)=O)cc2C(c2ccccc2)C1O` (stereo not drawn) [Example 110]: 0.09 µM; for `CCCC[C@@]1(CC)CS(=O)(=O)c2ccc(N)cc2[C@@H](c2ccc(O)cc2)[C@H]1O` [Example 111]: 2.5 µM. The same measure, in the same setting: with `CCCC[C@]1(CC)CS(=O)(=O)c2ccc(N)cc2[C@@H](c2ccc(OCCOCCOCCOc3ccc([C@H]4c5cc(N)ccc5S(=O)(=O)C[C@](CC)(CCCC)[C@H]4O)cc3)cc2)[C@H]1O` [Example 112] the figure was 3 µM. Same read-out and setting: with `CCCC[C@]1(CC)CS(=O)(=O)c2ccc(N)cc2[C@@H](c2ccc(O)cc2)[C@H]1O` [Example 113] the figure was 0.1 µM. With `CCCCC1(CC)CS(=O)(=O)c2ccc(N)cc2C(c2ccc(OC)cc2)C1O` (stereo not drawn) [Example 114], the half-maximal inhibitory concentration (IC50) (read-out: Human TC IC50) was found to be 0.19 µM.

Regarding `CCCCC1(CC)CS(=O)(=O)c2ccc(NC(=O)OCc3ccccc3)cc2C(c2ccccc2)C1O` (stereo not drawn) [Example 118], where the note is “read-out: Human TC IC50”, the concentration for half-maximal inhibition (IC50) is 0.4 µM. For `CCCCCCNc1ccc2c(c1)C(c1ccccc1)C(O)C(CC)(CCCC)CS2(=O)=O` (stereo not drawn) [Example 123], the IC50 (read-out: Human TC IC50) was 1.67 µM. Regarding `CCCC[C@]1(CC)CS(=O)(=O)c2cc(OCCOCCOCC[N+](C)(C)C)ccc2[C@@H](c2ccccc2)[C@H]1O` [Example 125], the IC50 (read-out: Human TC IC50) stood at 18 µM. Same read-out and setting: the same measure for `CCCCC1(CC)CS(=O)(=O)c2ccc(NC(=O)OCc3ccccc3)cc2C(c2ccc(F)cc2)C1O` (stereo not drawn) [Example 128]: 0.7 µM; for `CCCC[C@]1(CC)CS(=O)(=O)c2cc(OCCOCCOCCI)ccc2[C@@H](c2ccccc2)[C@H]1O` [Example 134]: 0.3 µM; for `CCCC[C@]1(CC)CS(=O)(=O)c2cc(O)ccc2[C@@H](c2ccccc2)[C@H]1O` [Example 136]: 0.09 µM.

`CCCCC1(CC)CS(=O)(=O)c2cc(OC(C)=O)ccc2C(c2ccccc2)C1O` (stereo not drawn) [Example 138]: the IC50 (read-out: Human TC IC50) was 3 µM. Consider `CCCCC1(CC)CS(=O)(=O)c2ccc(OCCCCCCOc3ccc4c(c3)C(c3ccccc3)C(O)C(CC)(CCCC)CS4(=O)=O)cc2C(c2ccccc2)C1O` (stereo not drawn) [Example 139], for which the IC50 (Human TC IC50) is > 25 µM. With `CCCCC1(CC)CS(=O)(=O)c2ccc(N3CCC3)cc2C(c2ccc(F)cc2)C1O` (stereo not drawn) [Example 144], the IC50 (read-out: Human TC IC50) was 0.053 µM. In the case of `CCCCC1(CC)CS(=O)(=O)c2ccc(O)cc2C(c2cccc(O)c2)C1O` (stereo not drawn) [Example 266], the IC50 (read-out: Human TC IC50) came out at 0.5 µM. Still for that read-out and setting: the same measure for `CCCCC1(CC)CS(=O)(=O)c2ccc(OC)cc2C(c2cccc(O)c2)C1O` (stereo not drawn) [Example 267]: 0.073 µM; for `CCCCC1(CC)CS(=O)(=O)c2ccc(OC)cc2C(c2ccc(F)cc2)C1O` (stereo not drawn) [Example 268]: 0.029 µM. Same read-out and setting: with `CCCCC1(CC)CS(=O)(=O)c2ccc(OC)cc2C(c2ccc(F)cc2)C1O` (stereo not drawn) [Example 269] the figure was 0.08 µM; with `CCCCC1(CC)CS(=O)(=O)c2ccc(O)cc2C(c2ccc(F)cc2)C1O` (stereo not drawn) [Example 270], 0.12 µM; with `CCCCC1(CC)CS(=O)(=O)c2ccc(F)cc2C(c2cccc(OC)c2)C1O` (stereo not drawn) [Example 276], 0.23 µM. On the same count and under the same terms, the same measure for `CCCCC1(CC)CS(=O)(=O)c2ccc(OC)cc2C(c2cccc(F)c2)C1O` (stereo not drawn) [Example 277]: 0.04 µM; for `CCCCC1(CC)CS(=O)(=O)c2ccc(OC)cc2C(c2ccccc2F)C1O` (stereo not drawn) [Example 280]: 0.18 µM.

The inhibition is the drop in the measured response relative to a control, in per cent. The term IC50 denotes the concentration that inhibits the measured activity by half.

Source of the values: patent US6784201B2, “Benzothiepines having activity as inhibitors of ileal bile acid transport and taurocholate uptake” (G.D. Searle & Company, priority 1994, dated 2004).
